Data taken from patent publication US20160256449A1, “H3 RECEPTOR ANTAGONIST FOR USE IN THE TREATMENT OF ALZHEIMER'S DISEASE” (SANOFI, priority 2013, published 2016).

System: patients with mild to moderate Alzheimer's disease
Test: clinical study, actigraphy (Actiwatch)
Assay type: in vivo, human
Details: for Interdaily variability, Ch from bl FUP / Intradaily stability, Ch from bl FUP / Mean awakening duration, Ch from bl FUP / Number of awakenings, Ch from bl FUP / Relative amplitude, Ch from bl FUP / Sleep efficiency, Ch from bl FUP / Sleep fragmentation, Ch from bl FUP / Total sleep time, Ch from bl FUP / Wake after sleep onset, Ch from bl FUP: follow-up
From the text: Actigraphy as used herein refers to an assessment of activity measured by an Actiwatch®, which was worn day and night by the patient during 4 periods of 15 days: before randomization, immediately after randomization, around week 12 and after treatment discontinuation around week 34 during the clinical study described in Example 2. The watch measures movements translating into assessment of sleep quality (number and duration of awakenings, wake after sleep onset or WASO, fragmentation index, sleep efficiency, total sleep period, total sleep time) and circadian rhythms ([…], relative amplitude).
A randomized, double-blind, parallel-group, placebo-controlled clinical trial was performed to study the effect on cognitive performance, safety, and tolerability of 2-(cyclohexylmethyl)-N-{2-[(2S)-1-methylpyrrolidin-2-yl]ethyl}-1,2,3,4-tetrahydroisoquinoline-7-sulfonamide difumarate monohydrate as adjunct treatment to donepezil.
More specifically, patients with mild to moderate Alzheimer's disease on stable donepezil therapy were randomized to receive doses of 0.5 mg, 2 mg, or 5 mg/day of 2-(cyclohexylmethyl)-N-{2-[(2S)-1-methylpyrrolidin-2-yl]ethyl}-1,2,3,4-tetrahydroisoquinoline-7-sulfonamide difumarate monohydrate or placebo for 24 weeks, with a 10 week follow-up period.
Patients were randomized to receive 0.5 mg, 2 mg, or 5 mg of 2-(cyclohexylmethyl)-N-{2-[(2S)-1-methylpyrrolidin-2-yl]ethyl}-1,2,3,4-tetrahydroisoquinoline-7-sulfonamide difumarate monohydrate (measured in base form), or matching placebo once a day, with donepezil (5 mg or 10 mg in the form the patient took prior to enrollment), for 24 weeks, with or without food.

## CN1CCC[C@H]1CCNS(=O)(=O)c1ccc2c(c1)CN(CC1CCCCC1)CC2 [API, 2-(cyclohexylmethyl)-N-{2-[(2S)-1-methylpyrrolidin-2-yl]ethyl}-1,2,3,4-tetrahydroisoquinoline-7-sulfonamide difumarate monohydrate]
0.5 mg/day with donepezil
  Interdaily variability, Ch from bl W2: 0.01
  Interdaily variability, Ch from bl W12: 0.04
  Intradaily stability, Ch from bl W2: −0.03
  Intradaily stability, Ch from bl W12: −0.06
  Mean awakening duration, Ch from bl W2: 0.08 min
  Mean awakening duration, Ch from bl W12: 0.22 min
  Mean awakening duration, significance (unlabelled line under Ch from bl W12): 0.0109
  Number of awakenings, Ch from bl W2: −0.37
  Number of awakenings, Ch from bl W12: −0.55
  Relative amplitude, Ch from bl W2: 0.00
  Relative amplitude, Ch from bl W12: 0.02
  Sleep efficiency, Ch from bl W2: −0.05%
  Sleep efficiency, Ch from bl W12: −0.53%
  Sleep efficiency, significance (unlabelled line under Ch from bl W12): 0.0121
  Sleep fragmentation, Ch from bl W2: 0.91
  Sleep fragmentation, Ch from bl W12: 0.29
  Total sleep time, Ch from bl W2: −0.03 h.min
  Total sleep time, Ch from bl W12: 0.05 h.min
  Wake after sleep onset, Ch from bl W2: 0.02 h.min
  Wake after sleep onset, Ch from bl W12: 0.03 h.min
  Interdaily variability, Ch from bl FUP: −0.02
  Intradaily stability, Ch from bl FUP: 0.06
  Mean awakening duration, Ch from bl FUP: 0.01 min
  Number of awakenings, Ch from bl FUP: 1.34
  Relative amplitude, Ch from bl FUP: −0.01
  Sleep efficiency, Ch from bl FUP: −0.69%
  Sleep fragmentation, Ch from bl FUP: 0.98
  Total sleep time, Ch from bl FUP: 0.24 h.min
  Wake after sleep onset, Ch from bl FUP: 0.04 h.min
2 mg and 5 mg groups, from week 12
  sleep quality assessed by wake after sleep onset (WASO) over placebo: dose-dependent worsening of sleep quality
2 mg/day with donepezil
  Interdaily variability, Ch from bl W2: −0.01
  Interdaily variability, Ch from bl W12: −0.03
  Intradaily stability, Ch from bl W2: 0.02
  Intradaily stability, Ch from bl W12: 0.01
  Mean awakening duration, Ch from bl W2: 0.14 min
  Mean awakening duration, Ch from bl W12: 0.40 min
  Mean awakening duration, significance (unlabelled line under Ch from bl W12): <.0001
  Number of awakenings, Ch from bl W2: 0.51
  Number of awakenings, Ch from bl W12: 1.26
  Relative amplitude, Ch from bl W2: −0.03
  Relative amplitude, Ch from bl W12: −0.06
  Relative amplitude, significance (unlabelled line under Ch from bl W12): <.0001
  Sleep efficiency, Ch from bl W2: −1.65%
  Sleep efficiency, Ch from bl W12: −2.58%
  Sleep efficiency, significance (unlabelled line under Ch from bl W12): <.0001
  Sleep fragmentation, Ch from bl W2: 2.82
  Sleep fragmentation, Ch from bl W12: 6.31
  Sleep fragmentation, significance (unlabelled line under Ch from bl W12): <.0001
  Total sleep time, Ch from bl W2: −0.1 h.min
  Total sleep time, Ch from bl W12: −0.2 h.min
  Wake after sleep onset, Ch from bl W2: 0.07 h.min
  Wake after sleep onset, Ch from bl W12: 0.18 h.min
  Wake after sleep onset, significance (unlabelled line under Ch from bl W12): <.0001
  Interdaily variability, Ch from bl FUP: −0.01
  Intradaily stability, Ch from bl FUP: 0.04
  Mean awakening duration, Ch from bl FUP: 0.34 min
  Number of awakenings, Ch from bl FUP: 1.27
  Relative amplitude, Ch from bl FUP: −0.07
  Sleep efficiency, Ch from bl FUP: −3.97%
  Sleep fragmentation, Ch from bl FUP: 3.93
  Total sleep time, Ch from bl FUP: −0.25 h.min
  Wake after sleep onset, Ch from bl FUP: 0.13 h.min
2 mg/day with donepezil, NS = non-significant
  Total sleep time, significance (unlabelled line under Ch from bl W12): 0.06)
5 mg
  total sleep time: No modification
5 mg group
  total sleep time and WASO after treatment discontinuation (FUP): improved
5 mg/day with donepezil
  Interdaily variability, Ch from bl W2: 0.00
  Interdaily variability, Ch from bl W12: −0.04
  Intradaily stability, Ch from bl W2: −0.05
  Intradaily stability, Ch from bl W12: 0.02
  Mean awakening duration, Ch from bl W2: 0.30 min
  Mean awakening duration, Ch from bl W12: 0.38 min
  Mean awakening duration, significance (unlabelled line under Ch from bl W12): <.0001
  Number of awakenings, Ch from bl W2: −0.52
  Number of awakenings, Ch from bl W12: 0.84
  Relative amplitude, Ch from bl W2: −0.02
  Relative amplitude, Ch from bl W12: −0.08
  Relative amplitude, significance (unlabelled line under Ch from bl W12): 0.0015
  Sleep efficiency, Ch from bl W2: −1.82%
  Sleep efficiency, Ch from bl W12: −2.26%
  Sleep efficiency, significance (unlabelled line under Ch from bl W12): <.0001
  Sleep fragmentation, Ch from bl W2: 3.57
  Sleep fragmentation, Ch from bl W12: 5.83
  Sleep fragmentation, significance (unlabelled line under Ch from bl W12): 0.0005
  Total sleep time, Ch from bl W2: −0.11 h.min
  Total sleep time, Ch from bl W12: −0.05 h.min
  Wake after sleep onset, Ch from bl W2: 0.08 h.min
  Wake after sleep onset, Ch from bl W12: 0.17 h.min
  Wake after sleep onset, significance (unlabelled line under Ch from bl W12): <.0001
  Interdaily variability, Ch from bl FUP: 0.00
  Intradaily stability, Ch from bl FUP: −0.03
  Mean awakening duration, Ch from bl FUP: 0.12 min
  Number of awakenings, Ch from bl FUP: 1.20
  Relative amplitude, Ch from bl FUP: −0.02
  Sleep efficiency, Ch from bl FUP: −0.89%
  Sleep fragmentation, Ch from bl FUP: 3.08
  Total sleep time, Ch from bl FUP: 0.1 h.min
  Wake after sleep onset, Ch from bl FUP: 0.09 h.min
